Measured values from ChEMBL document CHEMBL5143520, “Discovery and optimization of new 6, 7-dihydroxy-1, 2, 3, 4-tetrahydroisoquinoline derivatives as potent influenza virus PAN inhibitors” (Eur J Med Chem, 2022).
The source made the active and inactive calls. The calls are words filed in the database; no cut-off is given here.

Columns and labels:
Influenza A virus [1] = assay: Antiviral activity against Influenza A virus A/WSN/33(H1N1) infected in MDCK cells assessed as reduction in virus induced cytopathic effect measured 48 hrs post infection by MTT assay; assay type: functional, organism-based
[2] = Selectivity index, ratio of CC50 for cytotoxicity against MDCK cells to EC50 for antiviral activity against Influenza A virus A/WSN/33(H1N1) infected in MDCK cells; assay type: toxicity, cell-based; details: dog, read-out: Ratio CC50/EC50
[3] = Cytotoxicity against MDCK cells assessed as reduction in cell viability incubated for 48 hrs by MTT assay; assay type: toxicity, cell-based, Canis lupus familiaris; details: dog
[4] = target: Polymerase acidic protein (Influenza A virus (A/Puerto Rico/8/1934(H1N1)), UniProt P03433); assay: Inhibition of Influenza A virus N-terminal domain of PA endonuclease using 6FAM-TGGCAATATCAGCTCCACA-MGBNFQ as fluorescent substrate by FRET analysis
Influenza A virus [5] = assay: Antiviral activity against Influenza A virus A/WSN/33(H1N1) infected in MDCK cells assessed as reduction in nucleoprotein […] expression at 20 uM measured after 0 to 10 hrs by Western blot based time-of-addition assay; assay type: functional, organism-based; details: time 0-10 hrs
Influenza A virus [6] = assay: Antiviral activity against Influenza A virus A/WSN/33(H1N1) infected in human A549 cells assessed as reduction in nucleoprotein mRNA expression at 5 to 20 uM measured 24 hrs post infection by qRT-PCR analysis; assay type: functional, organism-based; details: dose 5-20 µM
Influenza A virus [7] = assay: Antiviral activity against Influenza A virus A/WSN/33(H1N1) infected in MDCK cells assessed as inhibition of virus replication and translation by measuring reduction in nucleoprotein […] expression at 20 uM measured after 2 to 8 hrs by Western blot based time-of-addition assay; assay type: functional, organism-based; details: time 2-8 hrs
Influenza A virus [8] = assay: Antiviral activity against Influenza A virus A/WSN/33(H1N1) infected in human A549 cells assessed as reduction in nucleoprotein expression at 5 to 20 uM measured 24 hrs post infection by Western blot analysis; assay type: functional, organism-based; details: dose 5-20 µM
Influenza A virus [9] = assay: Antiviral activity against Influenza A virus A/WSN/33(H1N1) infected in MDCK cells assessed as distribution of PAN protein expression in nucleus and cytoplasm measured 24 hrs post infection by DAPI staining based microscopic analysis; assay type: functional, organism-based

O=CN1[C@H](C(=O)Oc2ccc(Cl)cc2Cl)Cc2cc(O)c(O)cc2[C@@H]1Cc1ccc(O)c(O)c1
EC50 (Influenza A virus [1]): 3.76 µM | selectivity ratio [2]: 5.7 | CC50 at 48 h [3]: 21.4 µM

CN(C)C(=O)[C@@H]1Cc2cc(O)c(O)cc2[C@H](Cc2ccc(O)c(O)c2)N1C=O
EC50 (Influenza A virus [1]): > 10 µM | CC50 at 48 h [3]: > 100 µM

CCCC(=O)N1[C@H](C(=O)OC)Cc2cc(O)c(O)cc2[C@@H]1Cc1ccc(O)c(O)c1
EC50 (Influenza A virus [1]): > 10 µM | CC50 at 48 h [3]: > 100 µM

O=CN1[C@H](C(=O)Nc2ccc(Cl)cc2)Cc2cc(O)c(O)cc2[C@@H]1Cc1ccc(O)c(O)c1
EC50 (Influenza A virus [1]): 7.89 µM | selectivity ratio [2]: > 12.7 | CC50 at 48 h [3]: > 100 µM

O=CN1[C@H](C(=O)Oc2c(Cl)cccc2Cl)Cc2cc(O)c(O)cc2[C@@H]1Cc1ccc(O)c(O)c1
EC50 (Influenza A virus [1]): 2.57 µM | selectivity ratio [2]: 9.6 | CC50 at 48 h [3]: 24.8 µM

O=CN1[C@H](C(=O)Nc2ccccc2)Cc2cc(O)c(O)cc2[C@@H]1Cc1ccc(O)c(O)c1
EC50 (Influenza A virus [1]): > 10 µM | CC50 at 48 h [3]: > 100 µM

O=CN1[C@H](C(=O)Oc2ccccc2Cl)Cc2cc(O)c(O)cc2[C@@H]1Cc1ccc(O)c(O)c1
IC50 [4]: 0.28 µM | Activity (Influenza A virus [5]): Active | Activity (Influenza A virus [6]): Active | EC50 (Influenza A virus [1]): 4.5 µM | Activity (Influenza A virus [7]): Active | Activity (Influenza A virus [8]): Active | selectivity ratio [2]: > 22.2 | Activity (Influenza A virus [9]): Active | CC50 at 48 h [3]: > 100 µM

O=CN1[C@H](C(=O)Oc2ccccc2Br)Cc2cc(O)c(O)cc2[C@@H]1Cc1ccc(O)c(O)c1
IC50 [4]: 0.26 µM | EC50 (Influenza A virus [1]): 3.21 µM | selectivity ratio [2]: 17.8 | CC50 at 48 h [3]: 57.1 µM

COC(=O)[C@@H]1Cc2cc(O)c(O)cc2[C@H](Cc2ccc(O)c(O)c2)N1C(=O)CNC(C)=O
EC50 (Influenza A virus [1]): > 20 µM

O=CN1[C@H](C(=O)Oc2ccccc2F)Cc2cc(O)c(O)cc2[C@@H]1Cc1ccc(O)c(O)c1
IC50 [4]: 0.37 µM | EC50 (Influenza A virus [1]): 5.23 µM | selectivity ratio [2]: 11.7 | CC50 at 48 h [3]: 61.2 µM

O=CN1[C@H](C(=O)NCc2ccccc2)Cc2cc(O)c(O)cc2[C@@H]1Cc1ccc(O)c(O)c1
EC50 (Influenza A virus [1]): > 10 µM | CC50 at 48 h [3]: > 100 µM

O=CN1[C@H](C(=O)Oc2ccc(Cl)cc2)Cc2cc(O)c(O)cc2[C@@H]1Cc1ccc(O)c(O)c1
EC50 (Influenza A virus [1]): 3.86 µM | selectivity ratio [2]: 15 | CC50 at 48 h [3]: 57.6 µM

CN(Cc1ccccc1)C(=O)[C@@H]1Cc2cc(O)c(O)cc2[C@H](Cc2ccc(O)c(O)c2)N1C=O
EC50 (Influenza A virus [1]): 8.68 µM | selectivity ratio [2]: 10.6 | CC50 at 48 h [3]: 91.9 µM

COC(=O)[C@@H]1Cc2cc(O)c(O)cc2[C@H](Cc2ccc(O)c(O)c2)N1C(=O)CCl
EC50 (Influenza A virus [1]): 6.49 µM | selectivity ratio [2]: 5.3 | CC50 at 48 h [3]: 34.5 µM

O=C(O[C@@H]1Cc2c(O)cc(O)cc2O[C@@H]1c1cc(O)c(O)c(O)c1)c1cc(O)c(O)c(O)c1 [EPIGALOCATECHIN GALLATE]
IC50 [4]: 5.86 µM

COC(=O)[C@@H]1Cc2cc(O)c(O)cc2[C@H](Cc2ccc(O)c(O)c2)N1C(=O)C(F)(F)F
IC50 [4]: 0.5 µM | EC50 (Influenza A virus [1]): 6.76 µM | selectivity ratio [2]: 11.3 | CC50 at 48 h [3]: 76.4 µM

CCC(=O)N1[C@H](C(=O)OC)Cc2cc(O)c(O)cc2[C@@H]1Cc1ccc(O)c(O)c1
EC50 (Influenza A virus [1]): > 10 µM | CC50 at 48 h [3]: > 100 µM

O=CN1[C@H](C(=O)O)Cc2cc(O)c(O)cc2[C@@H]1Cc1ccc(O)c(O)c1
EC50 (Influenza A virus [1]): > 20 µM | CC50 at 48 h [3]: > 100 µM

CN1CCc2cc(O)c(O)cc2C1Cc1ccc(O)c(O)c1 (racemic)
IC50 [4]: 1.88 µM | EC50 (Influenza A virus [1]): > 20 µM | CC50 at 48 h [3]: > 100 µM

CCN(CC)C(=O)[C@@H]1Cc2cc(O)c(O)cc2[C@H](Cc2ccc(O)c(O)c2)N1C=O
EC50 (Influenza A virus [1]): > 10 µM | CC50 at 48 h [3]: > 100 µM

O=CN1[C@H](C(=O)Oc2cccc(Cl)c2)Cc2cc(O)c(O)cc2[C@@H]1Cc1ccc(O)c(O)c1
EC50 (Influenza A virus [1]): 6.09 µM | selectivity ratio [2]: 13.8 | CC50 at 48 h [3]: 84.3 µM

O=CN1[C@H](C(=O)Oc2cccc(F)c2)Cc2cc(O)c(O)cc2[C@@H]1Cc1ccc(O)c(O)c1
EC50 (Influenza A virus [1]): 4.72 µM | selectivity ratio [2]: 11.8 | CC50 at 48 h [3]: 55.6 µM

O=CN1[C@H](C(=O)Oc2ccccc2)Cc2cc(O)c(O)cc2[C@@H]1Cc1ccc(O)c(O)c1
IC50 [4]: 0.45 µM | EC50 (Influenza A virus [1]): 7.6 µM | selectivity ratio [2]: 10.2 | CC50 at 48 h [3]: 77.7 µM

CCCOC(=O)[C@@H]1Cc2cc(O)c(O)cc2[C@H](Cc2ccc(O)c(O)c2)N1C=O
EC50 (Influenza A virus [1]): 7.72 µM | selectivity ratio [2]: 9.7 | CC50 at 48 h [3]: 75.1 µM

O=CN1[C@H](C(=O)NCc2cccs2)Cc2cc(O)c(O)cc2[C@@H]1Cc1ccc(O)c(O)c1
EC50 (Influenza A virus [1]): > 10 µM | CC50 at 48 h [3]: > 100 µM

COc1ccc(CNC(=O)[C@@H]2Cc3cc(O)c(O)cc3[C@H](Cc3ccc(O)c(O)c3)N2C=O)cc1
EC50 (Influenza A virus [1]): > 10 µM | CC50 at 48 h [3]: > 100 µM

O=CN1[C@H](C(=O)Oc2ccc(Br)cc2)Cc2cc(O)c(O)cc2[C@@H]1Cc1ccc(O)c(O)c1
EC50 (Influenza A virus [1]): 3.23 µM | selectivity ratio [2]: 9.8 | CC50 at 48 h [3]: 32.1 µM

COC(=O)[C@@H]1Cc2cc(O)c(O)cc2[C@H](Cc2ccc(O)c(O)c2)N1C(C)=O
IC50 [4]: 0.53 µM | EC50 (Influenza A virus [1]): 7.65 µM | selectivity ratio [2]: > 13.1 | CC50 at 48 h [3]: > 100 µM

CCC(CC)[C@H](NC(C)=O)[C@@H]1[C@H](O)[C@@H](C(=O)O)C[C@H]1NC(=N)N [PERAMIVIR ANHYDROUS]
selectivity ratio [2]: > 19 | CC50 at 48 h [3]: > 100 µM

CCOC(=O)[C@@H]1Cc2cc(O)c(O)cc2[C@H](Cc2ccc(O)c(O)c2)N1C=O
EC50 (Influenza A virus [1]): 6.88 µM | selectivity ratio [2]: > 14.5 | CC50 at 48 h [3]: > 100 µM

O=CN1[C@H](C(=O)NCc2ccco2)Cc2cc(O)c(O)cc2[C@@H]1Cc1ccc(O)c(O)c1
EC50 (Influenza A virus [1]): > 10 µM | CC50 at 48 h [3]: > 100 µM

COC(=O)[C@@H]1Cc2cc(O)c(O)cc2[C@H](Cc2ccc(O)c(O)c2)N1C=O
IC50 [4]: 0.68 µM | EC50 (Influenza A virus [1]): 7.04 µM | selectivity ratio [2]: > 14.2 | CC50 at 48 h [3]: > 100 µM

COc1ccc(NC(=O)[C@@H]2Cc3cc(O)c(O)cc3[C@H](Cc3ccc(O)c(O)c3)N2C=O)cc1
EC50 (Influenza A virus [1]): 6.12 µM | selectivity ratio [2]: 8.3 | CC50 at 48 h [3]: 50.9 µM
